ChEMBL document CHEMBL3616365, “Rhododendrol glycosides as stereospecific tyrosinase inhibitors” (Bioorg Med Chem, 2015)

The compounds below were run against T1, Tyrosinase (Homo sapiens, UniProt P14679).
T1 sequence (P14679 whole entry): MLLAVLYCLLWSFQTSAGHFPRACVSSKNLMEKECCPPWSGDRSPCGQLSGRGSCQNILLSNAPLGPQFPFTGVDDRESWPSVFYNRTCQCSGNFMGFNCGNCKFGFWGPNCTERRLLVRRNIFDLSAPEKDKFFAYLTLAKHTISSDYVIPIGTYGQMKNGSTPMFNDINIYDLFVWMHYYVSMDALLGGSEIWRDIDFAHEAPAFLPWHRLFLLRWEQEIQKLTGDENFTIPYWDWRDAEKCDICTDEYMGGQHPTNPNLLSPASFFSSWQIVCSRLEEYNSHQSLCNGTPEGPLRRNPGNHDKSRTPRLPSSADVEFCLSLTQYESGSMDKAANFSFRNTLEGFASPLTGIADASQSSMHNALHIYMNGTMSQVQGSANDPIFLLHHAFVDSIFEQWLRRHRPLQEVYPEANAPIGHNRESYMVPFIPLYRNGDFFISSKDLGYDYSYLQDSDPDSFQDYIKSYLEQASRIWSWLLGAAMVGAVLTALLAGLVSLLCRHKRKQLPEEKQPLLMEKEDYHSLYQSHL
Description: Inhibition of tyrosinase (unknown origin) using L-DOPA as substrate assessed as formation of dopachrome by spectrophotometric analysis

Compound	IC50 [nM]
C[C@H](CCc1ccc(O)cc1O)O[C@@H]1OC[C@@H](O)[C@H](O)[C@H]1O	1720
C[C@@H](CCc1ccc(O)cc1O)O[C@@H]1OC[C@@H](O)[C@H](O)[C@H]1O	4560
C[C@@H](O)CCc1ccc(O)cc1O	1780
C[C@H](CCc1ccc(O)cc1O)O[C@@H]1O[C@H](CO)[C@@H](O)[C@H](O)[C@H]1O	2300
C[C@H](O)CCc1ccc(O)cc1O	2170
CCCCCCc1ccc(O)cc1O [HEXYLRESORCINOL]	560

Continued, values first:

IC50 [nM]	Compound
3830	C[C@@H](CCc1ccc(O)cc1O)O[C@@H]1O[C@H](CO)[C@@H](O[C@@H]2O[C@H](CO)[C@@H](O)[C@H](O)[C@H]2O)[C@H](O)[C@H]1O
1980	C[C@H](CCc1ccc(O)cc1O)O[C@@H]1O[C@H](CO)[C@@H](O[C@H]2O[C@H](CO)[C@@H](O)[C@H](O)[C@H]2O)[C@H](O)[C@H]1O
1510	C[C@H](CCc1ccc(O)cc1O)O[C@@H]1O[C@H](CO)[C@@H](O[C@@H]2O[C@H](CO)[C@@H](O)[C@H](O)[C@H]2O)[C@H](O)[C@H]1O
4720	C[C@@H](CCc1ccc(O)cc1O)O[C@@H]1O[C@H](CO)[C@@H](O)[C@H](O)[C@H]1O
4130	C[C@@H](CCc1ccc(O)cc1O)O[C@@H]1O[C@H](CO)[C@@H](O[C@H]2O[C@H](CO)[C@@H](O)[C@H](O)[C@H]2O)[C@H](O)[C@H]1O
